Measured values: patent US9763910B1, “Combination therapy for treating cancer” (Huanggang Normal University, priority 2016, dated 2017)

Assays:
[1] = tested on: CL1-5 human lung cancer cells engrafted in BALB/c nude mice; assay: Tumor growth in CL1-5 cell-engrafted BALB/c nude mice; conditions: CL1-5 engrafted nude mice
Experimental: The study was carried out as follows: inoculating BALB/c mice with of the CL1-5 human lung cancer cells; dividing the mice into 4 groups 7 days after inoculation with 8 mice in each group and treating them once every two days for 14 days respectively with (i) 0.4 ml of 10% DMSO, (ii) 0.4 ml of 10% DMSO containing 25 μmol of docetaxel, (iii) 0.4 ml of 10% DMSO containing 15.5 μmol of 5-demethylnobiletin, and (iv) 0.4 ml of 10% DMSO containing 25 μmol of docetaxel and 15.5 μmol of 5-demethylnobiletin; growing mice without any treatment for another 14 days; measuring tumor sizes after animal sacrificing.
The experimental BALB/c nude mice were divided into 4 groups, with 8 in each group. Each mouse was inoculated with 0.1 ml of the CL1-5 human lung cancer cells at a density of 10^6 cells/ml. 7 days after of the inoculation, the 4 groups of mice were infused respectively with (i) 27 μl of 10% DMSO; (ii) 25 μmol of docetaxel in a 10% DMSO solution (iii) 15.5 μmol of 5-demethylnobiletin in a 10% DMSO solution; and (iv) 25 μmol of docetaxel and 15.5 μmol of 5-demethylnobiletin in a 10% DMSO solution at a frequency of once every 2 days for 14 days. […]
[1−(fa)2], (fa)1 and (fa)2 are inhibition rates of drug1 and drug2, respectively, and (fa)1,2 is the calculated inhibition rate of combining drug1 and drug2, which is also a theoretical additive effect. […]

[2] = format: in vivo, mouse
Experimental: BALB/c nude mice were divided into two groups, with 8 mice in each group. […] Then, liver, spleen, and kidney weights of the mice in each group were measured and blood was collected. Following at RT for 1 h, the blood was centrifuged at 3000 rpm for 10 min at 4° C. to collect serum before stored at −80° C. Clinical chemistry measurements, e.g., levels of AST, ALT, triglyceride (TG), and total cholesterol (TC), were measured by an automatic biochemical analyzer.

CL1-5 lung cancer cells = assay: Growth inhibition of CL1-5 lung cancer cells (cell viability by absorbance); conditions: Homo sapiens, CL1-5, read-out: IC50 rate of docetaxel for the CL1-5 cells
Experimental: The CL1-5 cells were cultured in RPMI 1640 medium containing 100 U/ml penicillin, 100 μg/ml streptomycin, and 10% fetal bovine serum at a temperature of 37° C. and with carbon dioxide at a concentration of 5%. The cultured cells were divided into 8 treatment groups. 4 groups were treated only with docetaxel at different concentrations: 3.125, 6.25, 12.5, and 25.0 nmol of docetaxel per liter of the medium in 100 μl of 10% DMSO solution.

[3] = 15.5 μmol once every 2 days for 14 days, sacrificed after another 14 days
[4] = serum, 15.5 μmol once every 2 days for 14 days

Kidney weight [2, 3] [g]	Liver weight [2, 3] [g]	Spleen weight [2, 3] [g]	difference between control group and treatment group in organ weights and clinical chemistry ([2]; Table 1 parameters)	GOT [2, 4] [Unit/L]	GPT [2, 4] [Unit/L]	TC [2, 4] [mg/dL]	TG [2, 4] [mg/dL]	Compound	experimental inhibition rate (fa) of tumor growth [1] [%]	IC50 (CL1-5 lung cancer cells) [nM]
0.90 ± 0.06	3.93 ± 0.28	0.21 ± 0.04	no significant difference	91.2 ± 9.8	22.8 ± 5.2	77.1 ± 4.9	109.5 ± 36.9	COc1ccc(-c2cc(=O)c3c(O)c(OC)c(OC)c(OC)c3o2)cc1OC [5-Hydroxy-6,7,8,3′,4′-pentamethoxyflavone]	38	
								CC(=O)O[C@@]12CO[C@@H]1C[C@H](O)[C@@]1(C)C(=O)[C@H](O)C3=C(C)[C@@H](OC(=O)[C@H](O)[C@@H](NC(=O)OC(C)(C)C)c4ccccc4)C[C@@](O)([C@@H](OC(=O)c4ccccc4)[C@H]21)C3(C)C [docetaxel, 1,7β,10β-trihydroxy-9-oxo-5β,20-epoxytax-11-ene-2α,4,13α-triyl 4-acetate 2-benzoate 13-{(2R,3S)-3-[(tert-butoxycarbonyl)amino]-2-hydroxy-3-phenylpropanoate}, reference compound]	47.6	28.4
